Measured values from patent US20110039898A1, “METHOD FOR SCAVENGING FREE RADICALS AND INHIBITING TYROSINASE AND MELANIN” (priority 2009, published 2011).

Columns and labels:
human melanocytes = assay: Cell viability assay (MTT), human melanocytes; type: cell-based; conditions: 24 hours
Method: (§1) The culture medium was removed from the culture dish filled with cells. The cells were washed using 10 ml of a PBS. The number of the cells was counted by a blood cell counter and diluted to a proper cell concentration. 500 µl/well of the result was added to a 24-well culture plate and cultivated in a 37° C. culture box with 5% CO2 and mist until the cells were stuck on the bottom of the culture dish. After removal of the used culture medium, a fresh drug-containing culture medium with various concentrations was added (the drug was directly added when cells were suspended) and cultivated for 24 hours in a 37° C. culture box with 5% CO2 and mist. After removal of the upper clean solution, the cells were washed two times using a PBS. An MTT solution (500 μg/ml) prepared from the medium was then added to the well and reacted for 4-6 hours in a 37° C. culture box. After removal of the upper clean solution, 100 μl of a DMSO was added until a formazan crystal was dissolved. The absorption of the result was then measured by an ELISA reader (600 nm).

melanoma cells (B16-F10) = assay: Cell viability assay (MTT), melanoma cells; type: cell-based; conditions: 24 hours; for cell toxicity to melanoma cells (B16-F10): under effective concentration to inhibit melanin
Method: as §1

melanin of B16-F10 cells = assay: Melanin content assay in situ; type: cell-based; conditions: for inhibition of melanin of B16-F10 cells: three days, nicotinyl hydroxamic acid 10, 20, 40, 60 μM
Method: Melanin Content Assay In Situ
B16-F10 cells (1×10^5) were placed on a 60 mm culture dish. The nicotinyl hydroxamic acid and the N-methyl nicotinic acid hydroxamate iodide with various concentrations were respectively added and cultivated for three days in a culture box. After removal of the upper clean solution, the cells were washed two times using a PBS. The melanin was dissolved by 1N NaOH (90° C., 30 minutes). The melanin content was then measured (405 nm).

[1] = system: polyphenol oxidase in the apple juice; assay: Polyphenol oxidase inhibition assay in apple juice; type: biochemical; conditions: 5 to 200 μM; absorbance at 420 nm within two hours
Method: Polyphenol Oxidase Inhibition Assay
Apples were purchased from local supermarkets. 100 g of apples were peeled, cored and sliced prior to juicing in a blender. The preparation was with 100 ml distilled water filtered through swab and collected by centrifugation 12,000 rpm for 10 min at 4° C. The apple juice obtained was immediately collected 200 μl in a 96 well microplate and mixed nicotinyl hydroxamic acid and N-methyl nicotinic acid hydroxamate iodide (5-200 μM).

[2] = system: tyrosinase activity of B16-F10 cells; assay: Tyrosinase activity assay in situ; type: cell-based; conditions: three days
Method: Tyrosinase Activity Assay In Situ
B16-F10 cells (1×10^5) were placed on a 60 mm culture dish. After 12 hours, an adherent monolayer was formed on the bottom of the culture dish. After removal of the used culture medium, a fresh culture medium was added. A sample solution with various concentrations and/or 50 nM melanocytes stimulating hormone (MSH) were then added and cultivated at 37° C. for three days. After removal of the upper clean solution, the cells were washed two times using a PBS. After the cells were scraped away, protein was extracted and quantitated. One hundred μl of a phosphate buffer (250 mM, pH 6.5), 50 μl of a L-DOPA (10 mM) and 50 μl of a cell extract were sequentially added to a 96-well plate, uniformly mixed and reacted in a 37° C. culture box. The absorption of the result was then measured by an ELISA reader (475 nm).

[3] = system: melanin content in B16-F10 cells; assay: Melanin content in B16-F10 cells with ERK and AKT pathway inhibitors; type: cell-based
Description: The mechanism of inhibition of melanogenesis by nicotinyl hydroxamic acid in B16-F10 cells is further described as follows. ERK and AKT/[…] pathways participate in melanogenesis. PD98059, a MEK selective inhibitor, inhibits the activity of ERK (ERK is activated by MEK). LY294002, a phosphatidylinositol 3-kinase (PI3K) inhibitor, blocks the AKT/PKB pathway. The two inhibitors are used to determine the participation of nicotinyl hydroxamic acid in the ERK and AKT/PKA pathways. […] However, when nicotinyl hydroxamic acid is simultaneously added, the inhibition of melanin thereby is reduced by PD98059 and LY294002.

TRP-1 = assay: Western blot of B16-F10 cells: TRP-1; type: cell-based; conditions: B16-F10 cells treated 24 hours
Method: (§2) After using nicotinyl hydroxamic acid to treat B16-F10 cells for 24 hours, proteins are extracted and analyzed using the western blot method. The contents of tyrosinase and TRP-1 are reduced as the concentration of nicotinyl hydroxamic acid is increased.

MITF = assay: Western blot of B16-F10 cells: MITF; type: cell-based
Method: as §2
Microphthalmia-associated transcription factor (MITF) is a transcription factor controlling tyrosinase and TRP-1 expression in cells, with a helix-loop-helix leucine zipper structure, capable of regulation of melanogenesis and survival and proliferation of melanocytes.

p-MEK = assay: Western blot of B16-F10 cells: p-MEK; type: cell-based
Description: (§3) Additionally, according to the analytical results obtained using the western blot method, it was shown that the expression of p-ERK, p-MEK and p-AKT is increased as the concentration of nicotinyl hydroxamic acid is increased. Thus, in addition to inhibition of tyrosinase and adjustment of MITF, nicotinyl hydroxamic acid also reduces the melanin content in cells through ERK and AKT/PKB pathways.

p-ERK = assay: Western blot of B16-F10 cells: p-ERK; type: cell-based
Description: as §3

TRP-2 = assay: Western blot of B16-F10 cells: TRP-2; type: cell-based; conditions: B16-F10 cells treated 24 hours
tyrosinase = assay: Western blot of B16-F10 cells: tyrosinase; type: cell-based; conditions: B16-F10 cells treated 24 hours
Method: as §2

p-AKT = assay: Western blot of B16-F10 cells: p-AKT; type: cell-based
Description: as §3

[4] = concentration increased to 5 mM

SMILES | viability of human melanocytes (human melanocytes; [4]) | viability of B16-F10 melanoma cells (melanoma cells (B16-F10); [4]) | cell toxicity to melanoma cells (B16-F10) (melanoma cells (B16-F10)) | inhibition of melanin of B16-F10 cells (melanin of B16-F10 cells; MSH added) | inhibition of melanin of B16-F10 cells (melanin of B16-F10 cells; MSH not added) | inhibition of polyphenol oxidase in the apple juice [1] | tyrosinase activity of B16-F10 cells as concentration was increased ([2]; MSH added (50 nM)) | tyrosinase activity of B16-F10 cells as concentration was increased ([2]; no MSH added) | effect on melanin content in cells ([3]; inhibitor added) | concentration added to achieve the same inhibition effect on melanin content (melanin of B16-F10 cells; MSH added) [mM] | concentration added to achieve the same inhibition effect on melanin content (melanin of B16-F10 cells; no MSH added) [mM] | content of TRP-1 as concentration is increased (TRP-1) | content of MITF as concentration is increased (MITF) | viability of human melanocytes (human melanocytes; concentration increased to 1 mM) | inhibition of melanin when PD98059 and LY294002 are simultaneously added ([3]; with PD98059 and LY294002) | expression of p-MEK as concentration is increased (p-MEK) | expression of p-ERK as concentration is increased (p-ERK) | content of TRP-2 versus concentration (TRP-2) | content of tyrosinase as concentration is increased (tyrosinase) | expression of p-AKT as concentration is increased (p-AKT)
C[n+]1cccc(C(=O)NO)c1 [N-methyl nicotinic acid hydroxamate iodide] | still alive | still alive | low cell toxicity | achieved the same effects | achieved the same effects | effectively inhibited | decreased | decreased |  |  |  |  |  |  |  |  |  |  |  | 
COc1cccc(-c2cc(=O)c3ccccc3o2)c1N [PD98059, reference compound] |  |  |  |  |  |  |  |  | increases melanin content |  |  |  |  |  |  |  |  |  |  | 
O=c1cc(CO)occ1O [kojic acid, reference compound] |  |  |  |  |  |  |  |  |  | 1.5 | 1.5 |  |  |  |  |  |  |  |  | 
O=C(NO)c1cccnc1 [nicotinyl hydroxamic acid] |  |  | low cell toxicity | effectively inhibited | effectively inhibited | effectively inhibited | decreased | decreased |  | 0.04 | 0.06 | reduced | reduced | still alive | reduced | increased | increased | irrelevant to the concentration | reduced | increased
